The text below walks through data of patent US20260234124A1, “Substituted Pyrazolyl-Pyridinyl Compounds as Ligand Directed Degraders of IRAK3” (Celgene Corporation, priority 2022, published 2026).

The target of the experiment is T1, IRAK3-ePL (Homo sapiens, UniProt Q9Y616).
T1 construct: expressed in transfected cells; host or cells: 293T CRBN OE/GSPT1 G575N KI cells, lentiviral transduction, puromycin selection
In words: IRAK3-ePL overexpressing degradation assay. The experiment is classed as cell-based. Conditions: IRAK3-ePL Lenti-X 293T CRBN/GSPT1 G575N cells, overnight incubation, top dose 10 μM; for Dmax: HEK-293T, maximum percentage loss of target protein; for DC50: read-out: IRAK3 ePL degradation EC50. As for the experimental part: Example B1. IRAK3-ePL Overexpressing Degradation Assay
Stable cell lines were generated by the following protocol. 3×10^5 Lenti-X 293T cells (Clonetech) were plated in 0.8 mL of media in a 12-well plate and incubated overnight at 37° C./5% CO2. Packaging plasmid (0.4 μg, pMD), envelope plasmid (0.4 μg, pSP), and lentiviral transfer IRAK3-ePL plasmid (0.8 μg, IRAK3 sequence NM_007199.3) were mixed in 0.1 mL of Opti-MEM and incubated for 5 min. Simultaneously, 2.4 μL of Lipofectamine 2000 (Invitrogen) was added to 0.1 mL of Opti-MEM (Gibco) and incubated for 5 min. The plasmid DNA and lipofectamine were combined and the mixture was allowed to incubate for 20 min. DNA:Lipofectamine Opti-MEM mixtures were then added to previously plated cells dropwise and the cells were incubated for ~16 h at 37° C./5% CO2. Following incubation, the media was removed and 1.2 mL of fresh media was added per well. Lenti-X 293T cells were incubated for ~30 h at 37° C./5% CO2. […] Following incubation, media was removed from the Lenti-X 293T wells and passed through a […]. Part of the viral supernatant was used to transduce cells and the rest was stored at −80° C. Viruses were then added individually (0.5 mL virus) to each well of the 293T^CRBN OE/GSPT1 G575N KI cells, followed by addition of polybrene (10 mg/mL Millipore) to each well at a final concentration of 5.0 μg/mL. Cells were incubated for ~24 h at 37° C./5% CO2. After aspirating media off plates, cells were washed with DPBS, trypsinized and plated in a 10 cm dish in 15 mL of media and 1 μg/mL puromycin. Following incubation of cells for ~72 h at 37° C./5% CO2, media was aspirated off plates, and cells were washed with DPBS and trypsinized. The cells were plated in a 15 cm dish in 40 mL of media with 1.0 μg/mL Puromycin (Gibco) and incubated for ~72 h at 37° C./5% CO2. Following incubation, media was removed and cells were washed with DPBS and trypsinized. The majority of cells were resuspended in Invitrogen freezing media and stored away (~6-8×10^6 cells/vial).
IRAK3-ePL cellular dose response curve degradation assays were performed by the following protocol. Compounds to be tested were dispensed into a white 384-well tissue-culture treated plate using an acoustic liquid handler. Dilutions were prepared based on a 25 μL assay volume in duplicate 10 point 3-fold serial dilutions starting with a 10 μM dose. Negative control wells were included, which only contain 0.2% DMSO to calculate 100% signal. Positive control wells containing 30 μM Ataluren (luciferase inhibitor) were included to calculate the background signal level. All wells were backfilled to a final DMSO concentration of 0.2% to ensure DMSO uniformity across wells. IRAK3-ePL expressing cells (IRAK3-ePL Lenti-X 293T^CRBN/GSPT1 G575N) were washed, trypsinized, counted, and resuspended in fresh DMEM (Gibco) to give a cell concentration of 200,000 cells/mL. 25 μL of cells (5,000 cells/well) were dispensed into the wells of the 384-well plate prespotted with compounds in the previous step and incubated overnight at 37° C./5% CO2. Following incubation, the 384-well plate was taken out of the incubator and left at room temperature for 30 min. InCELL hunter reagent was prepared according to manufacturer's instructions (EA reagent, lysis buffer, and substrate reagent in a 1:1:4 ratio, Cat #96-0002, DiscoverX), which was added to the 384-well plate 25 μL per well. Following the incubation of the plate for 1 h at room temperature, the luminescence signal was read using a ViewLux plate reader. Data was processed and analyzed in ActivityBase software. In short, the average luminescence values of the positive control wells were subtracted from the rest of the wells for background correction, and all luminescence values were normalized to the DMSO control wells. The average value of the DMSO control wells was set to equal 100% of the relative IRAK3-ePL protein levels. […]

With `C[C@@H](Oc1cc(-c2cnn(C3CCN(C4CCC5(CC4)CCN(C(=O)c4ccc6c(c4)CN(C4CCC(=O)NC4=O)C6=O)CC5)CC3)c2)cnc1N)c1c(Cl)ccc(F)c1Cl` (stereo partly drawn) [Compound 20, 3-(5-(9-(4-(4-(6-amino-5-((R)-1-(2,6-dichloro-3-fluorophenyl)ethoxy)pyridin-3-yl)-1H-pyrazol-1-yl)piperidin-1-yl)-3-azaspiro[5.5]undecane-3-carbonyl)-1-oxoisoindolin-2-yl)piperidine-2,6-dione], the Dmax worked out at 74% and the DC50 came to 0.055 µM.

On to `C[C@@H](Oc1cc(-c2cnn(C3CCN(CCOCCOCCNC(=O)COc4cccc5c4C(=O)N(C4CCC(=O)NC4=O)C5=O)CC3)c2)cnc1N)c1c(Cl)ccc(F)c1Cl` (stereo partly drawn) [Compound 10, N-(2-(2-(2-(4-(4-(6-amino-5-((R)-1-(2,6-dichloro-3-fluorophenyl)ethoxy)pyridin-3-yl)-1H-pyrazol-1-yl)piperidin-1-yl)ethoxy)ethoxy)ethyl)-2-((2-(2,6-dioxopiperidin-3-yl)-1,3-dioxoisoindolin-4-yl)oxy)acetamide], for which the maximal degradation (Dmax) turned out to be 22% and the DC50 was > 10 µM.

For `C[C@@H](Oc1cc(-c2cnn(C3CCN(CCOCCNC(=O)COc4cccc5c4C(=O)N(C4CCC(=O)NC4=O)C5=O)CC3)c2)cnc1N)c1c(Cl)ccc(F)c1Cl` (stereo partly drawn) [Compound 9, N-(2-(2-(4-(4-(6-amino-5-((R)-1-(2,6-dichloro-3-fluorophenyl)ethoxy)pyridin-3-yl)-1H-pyrazol-1-yl)piperidin-1-yl)ethoxy)ethyl)-2-((2-(2,6-dioxopiperidin-3-yl)-1,3-dioxoisoindolin-4-yl)oxy)acetamide], the Dmax was found to be 12% and the DC50 was > 10 µM.

Consider `C[C@@H](Oc1cc(-c2cnn(C3CCN(C4CCC5(CC4)CCN(C(=O)c4ccc6c(c4)C(=O)N(C4CCC(=O)NC4=O)C6)CC5)CC3)c2)cnc1N)c1c(Cl)ccc(F)c1Cl` (stereo partly drawn) [Compound 19, 3-(6-(9-(4-(4-(6-amino-5-((R)-1-(2,6-dichloro-3-fluorophenyl)ethoxy)pyridin-3-yl)-1H-pyrazol-1-yl)piperidin-1-yl)-3-azaspiro[5.5]undecane-3-carbonyl)-1-oxoisoindolin-2-yl)piperidine-2,6-dione], for which the greatest degradation seen (Dmax) stood at 36% and the DC50 was > 10 µM.

As for `C[C@@H](Oc1cc(-c2cnn(C3CCN(CCNC(=O)COc4ccc5c(c4)C(=O)N(C4CCC(=O)NC4=O)C5=O)CC3)c2)cnc1N)c1c(Cl)ccc(F)c1Cl` (stereo partly drawn) [Compound 13, N-(2-(4-(4-(6-amino-5-((R)-1-(2,6-dichloro-3-fluorophenyl)ethoxy)pyridin-3-yl)-1H-pyrazol-1-yl)piperidin-1-yl)ethyl)-2-((2-(2,6-dioxopiperidin-3-yl)-1,3-dioxoisoindolin-5-yl)oxy)acetamide], the greatest degradation seen (Dmax) is 70% and the DC50 was 0.173 µM.

Turning to `Cc1ncsc1-c1ccc(CNC(=O)[C@@H]2C[C@@H](O)CN2C(=O)[C@@H](NC(=O)COCCOCCOCCOCCOCCOCCOCCN2CCC(n3cc(-c4cnc(N)c(O[C@H](C)c5c(Cl)ccc(F)c5Cl)c4)cn3)CC2)C(C)(C)C)cc1` [Compound 7, (2S,4R)-1-((S)-26-(4-(4-(6-amino-5-((R)-1-(2,6-dichloro-3-fluorophenyl)ethoxy)pyridin-3-yl)-1H-pyrazol-1-yl)piperidin-1-yl)-2-(tert-butyl)-4-oxo-6,9,12,15,18,21,24-heptaoxa-3-azahexacosanoyl)-4-hydroxy-N-(4-(4-methylthiazol-5-yl)benzyl)pyrrolidine-2-carboxamide], the Dmax came to 38% and the DC50 was > 10 µM.

With `Cc1ncsc1-c1ccc(CNC(=O)[C@@H]2C[C@@H](O)CN2C(=O)[C@@H](NC(=O)COCCOCCN2CCC(n3cc(-c4cnc(N)c(O[C@H](C)c5c(Cl)ccc(F)c5Cl)c4)cn3)CC2)C(C)(C)C)cc1` [Compound 2, (2S,4R)-1-((S)-2-(2-(2-(2-(4-(4-(6-amino-5-((R)-1-(2,6-dichloro-3-fluorophenyl)ethoxy)pyridin-3-yl)-1H-pyrazol-1-yl)piperidin-1-yl)ethoxy)ethoxy)acetamido)-3,3-dimethylbutanoyl)-4-hydroxy-N-(4-(4-methylthiazol-5-yl)benzyl)pyrrolidine-2-carboxamide], the Dmax stood at 25% and the DC50 is > 10 µM.

For `C[C@@H](Oc1cc(-c2cnn(C3CCN(CCOCCOCCOCCNC(=O)COc4ccc5c(c4)C(=O)N(C4CCC(=O)NC4=O)C5=O)CC3)c2)cnc1N)c1c(Cl)ccc(F)c1Cl` (stereo partly drawn) [Compound 16, N-(2-(2-(2-(2-(4-(4-(6-amino-5-((R)-1-(2,6-dichloro-3-fluorophenyl)ethoxy)pyridin-3-yl)-1H-pyrazol-1-yl)piperidin-1-yl)ethoxy)ethoxy)ethoxy)ethyl)-2-((2-(2,6-dioxopiperidin-3-yl)-1,3-dioxoisoindolin-5-yl)oxy)acetamide], the greatest degradation seen (Dmax) turned out to be 19% and the DC50 is > 10 µM.

Take `C[C@@H](Oc1cc(-c2cnn(C3CCN(C4CCC5(CC4)CCN(C(=O)c4ccc6c(c4)C(=O)N(C4CCC(=O)NC4=O)C6=O)CC5)CC3)c2)cnc1N)c1c(Cl)ccc(F)c1Cl` (stereo partly drawn) [Compound 18, 5-(9-(4-(4-(6-amino-5-((R)-1-(2,6-dichloro-3-fluorophenyl)ethoxy)pyridin-3-yl)-1H-pyrazol-1-yl)piperidin-1-yl)-3-azaspiro[5.5]undecane-3-carbonyl)-2-(2,6-dioxopiperidin-3-yl)isoindoline-1,3-dione]: the maximal degradation (Dmax) stood at 80% and the DC50 turned out to be 0.066 µM.

For `Cc1ncsc1-c1ccc(CNC(=O)[C@@H]2C[C@@H](O)CN2C(=O)[C@@H](NC(=O)COCCOCCOCCOCCN2CCC(n3cc(-c4cnc(N)c(O[C@H](C)c5c(Cl)ccc(F)c5Cl)c4)cn3)CC2)C(C)(C)C)cc1` [Compound 4, (2S,4R)-1-((S)-17-(4-(4-(6-amino-5-((R)-1-(2,6-dichloro-3-fluorophenyl)ethoxy)pyridin-3-yl)-1H-pyrazol-1-yl)piperidin-1-yl)-2-(tert-butyl)-4-oxo-6,9,12,15-tetraoxa-3-azaheptadecanoyl)-4-hydroxy-N-(4-(4-methylthiazol-5-yl)benzyl)pyrrolidine-2-carboxamide], the Dmax amounted to 26% and the DC50 was > 10 µM.

Regarding `Cc1ncsc1-c1ccc(CNC(=O)[C@@H]2C[C@@H](O)CN2C(=O)[C@@H](NC(=O)COCCOCCOCCOCCOCCOCCN2CCC(n3cc(-c4cnc(N)c(O[C@H](C)c5c(Cl)ccc(F)c5Cl)c4)cn3)CC2)C(C)(C)C)cc1` [Compound 6, (2S,4R)-1-((S)-23-(4-(4-(6-amino-5-((R)-1-(2,6-dichloro-3-fluorophenyl)ethoxy)pyridin-3-yl)-1H-pyrazol-1-yl)piperidin-1-yl)-2-(tert-butyl)-4-oxo-6,9,12,15,18,21-hexaoxa-3-azatricosanoyl)-4-hydroxy-N-(4-(4-methylthiazol-5-yl)benzyl)pyrrolidine-2-carboxamide], the Dmax was 25% and the DC50 is > 10 µM.

For orientation: Dmax means the greatest extent of degradation seen. A low value points to shallow degradation.
